# Key:
# Assay type in all cases: in vivo
# Solanum nigrum = test: Pot experiment (glass greenhouse), soil treatment, control of Solanum nigrum (fresh weight, Colby)
# Method: (§1) Referring to an article of Colby, S. R. i.e., Calculation of the synergistic and antagonistic response of herbicide combinations.
# (§2) E0-E value is calculated to evaluate the combined effect of pyroxasulfone and the second herbicide selected from the group consisting of fluorochloridone, aclonifen, diflufenican and terbutryn on the selected weeds.
# (§3) In this Example, the herbicidal activity of treatments by a mixture of pyroxasulfone and the second herbicide selected from the group consisting of fluorochloridone, aclonifen, diflufenican and terbutryn for controlling Aegilops tauschii was investigated by a pot experiment. This Example was carried out in accordance with “NY/T 1155.4-2006 Guidelines for Indoor Bioassay Tests of Pesticides, Herbicides Part 4: Activity Determination Tests, Stem and Leaf Spray Method”. • Source of the agrochemicals tested were: • Pyroxasulfone: pyroxasulfone (850g/Kg, WG) from Adama Agan LTD. • Fluorochloridone: fluorochloridone (250 g/L, EC) from Adama Agan LTD. • Aclonifen: aclonifen (600 g/L, SC) from Adama Agan LTD. • Diflufenican: diflufenican (50g/Kg, WP) from Bayer. • Terbutryn: terbutryn (50g/Kg, SC) from Zhejiang Zhongshan Chemical Industry Group Co., Ltd. • Cultivation of test materials: The test soil was formed by mixing the 20 cm layer loam on the ground surface and the culture medium in a ratio of 3:1 as cultivation soil. Weeds were cultivated in an artificial climate chamber. The daytime and nighttime temperatures were set at 22° C. and 19° C., respectively, and the illumination was set at daytime: dark time 12h: 12h.
# (§4) A certain amount of Aegilops tauschii seeds were sown in a plastic pot with a diameter of 9 cm, covering with 1-2 mm soil, and putting them in an enamel dish filled with water. The bottom infiltration method was used to water them, the agrochemicals tested in this Example were applied on the second day after sowing Aegilops tauschii seeds.
# (§5) Spraying treatment: ASS-4 automatic control spraying system with a fan-shaped nozzle was used indoors to spray the agrochemicals, the running speed was adjusted based on nozzle pressure, flow rate, etc. to spray 50 mL of liquid of agrochemicals on the actual spray area of 1.1 m2 (equivalent to 30 liters per mu), arranging the plastic pots to be processed on the spraying table evenly, and spraying evenly. The spraying pressure was 0.35 MPa, and the flow rate of the fan-shaped nozzle was 800 mL/min, spraying in order from low dosage to high dosage. Each treatment was repeated 3 times. After spraying, the plastic pots were dried for one day, placed in an artificial climate chamber, and watered regularly to keep moist.
# (§6) Weed investigation method and time: after applying the agrochemicals, the symptoms of weed damage (such as growth inhibition, chlorosis, deformity, etc.) were recorded in detail. After 35 days, the fresh weight of aerial part of the weeds in each treatment was weighed, and the measured fresh weight inhibition rate and the measured fresh weight survival rate for each treatment were calculated according to the following equations: […]
# Example 6 was substantially conducted in the same as Example 1, except that (1) Solanum nigrum was used instead of Aegilops tauschii, (2) in “Cultivation of test materials” part, Solanum nigrum was cultivated in a glass greenhouse instead of an artificial climate chamber at a temperature of 25 to 33° C. with a natural illumination, and (3) in “Spraying treatment” part, after spraying and drying, the plastic pots were placed in a glass greenhouse instead of an artificial climate chamber.
# Lithospermum arvense = test: Pot experiment, soil treatment, control of Lithospermum arvense (fresh weight, Colby)
# Method: as §1, §2, §3, §4, §5, §6
# Example 5 was conducted substantially the same way as Example 1, except that Lithospermum arvense was used instead of Aegilops tauschii.
# Aegilops tauschii = test: Pot experiment, soil treatment, control of Aegilops tauschii (fresh weight, Colby); settings: mixtures: both AIs at these rates, after 35 days
# Description: as §1
# E0 is the theoretical fresh weight survival rate for the mixture of pyroxasulfone and the second herbicide selected from the group consisting of fluorochloridone, aclonifen, diflufenican and terbutryn;
# X is the measured fresh weight survival rate for pyroxasulfone used alone at the same dosage as that in the mixture;
# Y is the measured fresh weight survival rate for the second herbicide selected from the group consisting of fluorochloridone, aclonifen, diflufenican and terbutryn used alone at the same dosage as that in the mixture;
# E is the measured fresh weight survival rate for the mixture of pyroxasulfone and the second herbicide selected from the group consisting of fluorochloridone, aclonifen, diflufenican and terbutryn.
# as §2, §3, §4, §5, §6
# Bromus japonicus = test: Pot experiment, soil treatment, control of Bromus japonicus (fresh weight, Colby); settings: mixtures: both AIs at these rates, after 35 days
# Method: as §1, §2, §3, §4, §5, §6
# Example 3 was conducted in substantially the same way as Example 1, except that Bromus japonicus was used instead of Aegilops tauschii.
# Lolium multiflorum Lamk = test: Pot experiment, soil treatment, control of Lolium multiflorum Lamk (fresh weight, Colby); settings: mixtures: both AIs at these rates, after 35 days
# Method: as §1, §2, §3, §4, §5, §6
# Example 2 was conducted in substantially the same way as Example 1, except that Lolium multiflorum Lamk was used instead of Aegilops tauschii.
# Galium aparine = test: Pot experiment, soil treatment, control of Galium aparine (fresh weight, Colby)
# Method: as §1, §2, §3, §4, §5, §6
# Example 4 was conducted substantially the same way as Example 1, except that Galium aparine was used instead of Aegilops tauschii.
# [1] = g ai/ha: pyroxasulfone 11.25, fluorochloridone 31.25, aclonifen 150, diflufenican 14.0625, terbutryn 140.625
# [2] = g ai/ha: pyroxasulfone 22.5, fluorochloridone 62.5, aclonifen 300, diflufenican 28.125, terbutryn 281.25
# [3] = g ai/ha: pyroxasulfone 45, fluorochloridone 125, aclonifen 600, diflufenican 56.25, terbutryn 562.5
# [4] = g ai/ha: pyroxasulfone 90, fluorochloridone 250, aclonifen 1200, diflufenican 112.5, terbutryn 1125
# [5] = g ai/ha: pyroxasulfone 180, fluorochloridone 500, aclonifen 2400, diflufenican 225, terbutryn 2250
# [6] = g ai/ha: pyroxasulfone 360, fluorochloridone 1000, aclonifen 4800, diflufenican 450, terbutryn 4500
substance,measurement,setting,value
3-chloro-4-(chloromethyl)-1-(3-(trifluoromethyl)phenyl)-2-pyrrolidione [fluorochloridone],Measured fresh weight inhibition rate (%),Solanum nigrum; 31.25 g ai/ha,18.8%
same,Measured fresh weight survival rate (%) - E,Solanum nigrum; 31.25 g ai/ha,81.2%
same,Measured fresh weight inhibition rate (%),Solanum nigrum; 62.5 g ai/ha,32.5%
same,Measured fresh weight survival rate (%) - E,Solanum nigrum; 62.5 g ai/ha,67.5%
same,Measured fresh weight inhibition rate (%),Solanum nigrum; 125 g ai/ha,67.1%
same,Measured fresh weight survival rate (%) - E,Solanum nigrum; 125 g ai/ha,32.9%
same,Measured fresh weight inhibition rate (%),Solanum nigrum; 250 g ai/ha,99.6%
same,Measured fresh weight survival rate (%) - E,Solanum nigrum; 250 g ai/ha,0.4%
same,Measured fresh weight inhibition rate (%),Solanum nigrum; 500 g ai/ha,100.0%
same,Measured fresh weight survival rate (%) - E,Solanum nigrum; 500 g ai/ha,0.0%
same,Measured fresh weight inhibition rate (%),Lithospermum arvense; 31.25 g ai/ha,47.8%
same,Measured fresh weight survival rate (%) - E,Lithospermum arvense; 31.25 g ai/ha,52.2%
same,Measured fresh weight inhibition rate (%),Lithospermum arvense; 62.5 g ai/ha,97.1%
same,Measured fresh weight survival rate (%) - E,Lithospermum arvense; 62.5 g ai/ha,2.9%
same,Measured fresh weight inhibition rate (%),Lithospermum arvense; 125 g ai/ha,98.6%
same,Measured fresh weight survival rate (%) - E,Lithospermum arvense; 125 g ai/ha,1.4%
same,Measured fresh weight inhibition rate (%),Lithospermum arvense; 250 g ai/ha,100.0%
same,Measured fresh weight survival rate (%) - E,Lithospermum arvense; 250 g ai/ha,0.0%
same,Measured fresh weight inhibition rate (%),Lithospermum arvense; 500 g ai/ha,100.0%
same,Measured fresh weight survival rate (%) - E,Lithospermum arvense; 500 g ai/ha,0.0%
same,Measured fresh weight inhibition rate (%),Aegilops tauschii; [1],0.0%
same,Measured fresh weight survival rate (%) - E,Aegilops tauschii; [1],100.0%
same,Measured fresh weight inhibition rate (%),Aegilops tauschii; [2],7.9%
same,Measured fresh weight survival rate (%) - E,Aegilops tauschii; [2],92.1%
same,Measured fresh weight inhibition rate (%),Aegilops tauschii; [3],11.0%
same,Measured fresh weight survival rate (%) - E,Aegilops tauschii; [3],89.0%
same,Measured fresh weight inhibition rate (%),Aegilops tauschii; [4],49.4%
same,Measured fresh weight survival rate (%) - E,Aegilops tauschii; [4],50.6%
same,Measured fresh weight inhibition rate (%),Aegilops tauschii; [5],79.3%
same,Measured fresh weight survival rate (%) - E,Aegilops tauschii; [5],20.7%
same,Measured fresh weight inhibition rate (%),Aegilops tauschii; [6],93.9%
same,Measured fresh weight survival rate (%) - E,Aegilops tauschii; [6],6.1%
same,Measured fresh weight inhibition rate (%),Bromus japonicus; [1],94.8%
same,Measured fresh weight survival rate (%) - E,Bromus japonicus; [1],5.2%
same,Measured fresh weight inhibition rate (%),Bromus japonicus; [2],96.9%
same,Measured fresh weight survival rate (%) - E,Bromus japonicus; [2],3.1%
same,Measured fresh weight inhibition rate (%),Bromus japonicus; [3],100.0%
same,Measured fresh weight survival rate (%) - E,Bromus japonicus; [3],0.0%
same,Measured fresh weight inhibition rate (%),Bromus japonicus; [4],100.0%
same,Measured fresh weight survival rate (%) - E,Bromus japonicus; [4],0.0%
same,Measured fresh weight inhibition rate (%),Bromus japonicus; [5],100.0%
same,Measured fresh weight survival rate (%) - E,Bromus japonicus; [5],0.0%
same,Measured fresh weight inhibition rate (%),Lolium multiflorum Lamk; [1],93.2%
same,Measured fresh weight survival rate (%) - E,Lolium multiflorum Lamk; [1],6.8%
same,Measured fresh weight inhibition rate (%),Lolium multiflorum Lamk; [2],96.4%
same,Measured fresh weight survival rate (%) - E,Lolium multiflorum Lamk; [2],3.6%
same,Measured fresh weight inhibition rate (%),Lolium multiflorum Lamk; [3],98.4%
same,Measured fresh weight survival rate (%) - E,Lolium multiflorum Lamk; [3],1.6%
same,Measured fresh weight inhibition rate (%),Lolium multiflorum Lamk; [4],100.0%
same,Measured fresh weight survival rate (%) - E,Lolium multiflorum Lamk; [4],0.0%
same,Measured fresh weight inhibition rate (%),Lolium multiflorum Lamk; [5],100.0%
same,Measured fresh weight survival rate (%) - E,Lolium multiflorum Lamk; [5],0.0%
same,Measured fresh weight inhibition rate (%),Lolium multiflorum Lamk; [6],100.0%
same,Measured fresh weight survival rate (%) - E,Lolium multiflorum Lamk; [6],0.0%
same,Measured fresh weight inhibition rate (%),Galium aparine; 31.25 g ai/ha,63.0%
same,Measured fresh weight survival rate (%) - E,Galium aparine; 31.25 g ai/ha,37.0%
same,Measured fresh weight inhibition rate (%),Galium aparine; 62.5 g ai/ha,84.9%
same,Measured fresh weight survival rate (%) - E,Galium aparine; 62.5 g ai/ha,15.1%
same,Measured fresh weight inhibition rate (%),Galium aparine; 125 g ai/ha,93.2%
same,Measured fresh weight survival rate (%) - E,Galium aparine; 125 g ai/ha,6.8%
same,Measured fresh weight inhibition rate (%),Galium aparine; 250 g ai/ha,95.9%
same,Measured fresh weight survival rate (%) - E,Galium aparine; 250 g ai/ha,4.1%
same,Measured fresh weight inhibition rate (%),Galium aparine; 500 g ai/ha,100.0%
same,Measured fresh weight survival rate (%) - E,Galium aparine; 500 g ai/ha,0.0%
